Structures are written as SMILES. Read-outs that look alike come from different tables or passages of the source.

In patent US11339130B1 (Blade Therapeutics, Inc., priority 2016, dated 2022) one finds IC50 data, which are given here for twelve molecules.

One experiment addresses T1, Human Calpain 1/NS1 (Homo sapiens, UniProt P07384).
T1 sequence (P07384 1-714): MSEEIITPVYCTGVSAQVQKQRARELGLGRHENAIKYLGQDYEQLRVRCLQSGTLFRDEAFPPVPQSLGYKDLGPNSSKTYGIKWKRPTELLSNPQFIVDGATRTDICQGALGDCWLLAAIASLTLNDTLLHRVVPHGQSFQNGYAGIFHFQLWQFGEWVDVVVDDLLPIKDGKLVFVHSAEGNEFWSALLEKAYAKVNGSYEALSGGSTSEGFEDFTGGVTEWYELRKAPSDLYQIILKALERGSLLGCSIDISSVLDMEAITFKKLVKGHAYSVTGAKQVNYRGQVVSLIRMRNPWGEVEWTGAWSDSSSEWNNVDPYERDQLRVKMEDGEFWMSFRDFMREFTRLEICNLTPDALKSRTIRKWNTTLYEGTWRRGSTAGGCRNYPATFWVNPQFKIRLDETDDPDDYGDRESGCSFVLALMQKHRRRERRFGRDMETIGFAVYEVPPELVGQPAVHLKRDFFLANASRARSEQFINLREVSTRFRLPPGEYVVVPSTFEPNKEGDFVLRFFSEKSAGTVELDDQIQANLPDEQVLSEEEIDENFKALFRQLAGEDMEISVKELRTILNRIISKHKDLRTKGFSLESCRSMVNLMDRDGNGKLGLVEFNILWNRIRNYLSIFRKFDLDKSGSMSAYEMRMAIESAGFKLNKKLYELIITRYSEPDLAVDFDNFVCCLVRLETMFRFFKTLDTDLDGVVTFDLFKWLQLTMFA
T1 sequence (P04632 1-268 partner): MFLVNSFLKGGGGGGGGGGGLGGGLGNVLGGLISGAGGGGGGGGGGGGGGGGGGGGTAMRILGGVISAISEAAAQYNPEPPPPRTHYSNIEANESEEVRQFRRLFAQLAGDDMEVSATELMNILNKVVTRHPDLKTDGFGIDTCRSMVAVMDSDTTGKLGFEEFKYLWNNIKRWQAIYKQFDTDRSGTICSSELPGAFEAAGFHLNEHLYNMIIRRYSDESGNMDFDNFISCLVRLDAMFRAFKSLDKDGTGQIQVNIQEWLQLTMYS
As to the kind of experiment: Calpain inhibition continuous fluorescence (FRET) assay, Human Calpain 1/NS1. The format is biochemical. Conditions: read-out: Human Calpain 1/NS1 IC50. A digest of the protocol:
(§1)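 Fluorescence increase from the cleaved 5-FAM/QXL 520 substrate, read at 490/520 nm, gave activity. Calcium was supplied with the substrate to activate the enzyme in situ after a 25C enzyme-inhibitor preincubation, and IC50s were fit from initial slopes.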

The target of another experiment is T2, Human Calpain 2/NS1 (Homo sapiens, UniProt P17655).
T2 sequence (P17655 1-700): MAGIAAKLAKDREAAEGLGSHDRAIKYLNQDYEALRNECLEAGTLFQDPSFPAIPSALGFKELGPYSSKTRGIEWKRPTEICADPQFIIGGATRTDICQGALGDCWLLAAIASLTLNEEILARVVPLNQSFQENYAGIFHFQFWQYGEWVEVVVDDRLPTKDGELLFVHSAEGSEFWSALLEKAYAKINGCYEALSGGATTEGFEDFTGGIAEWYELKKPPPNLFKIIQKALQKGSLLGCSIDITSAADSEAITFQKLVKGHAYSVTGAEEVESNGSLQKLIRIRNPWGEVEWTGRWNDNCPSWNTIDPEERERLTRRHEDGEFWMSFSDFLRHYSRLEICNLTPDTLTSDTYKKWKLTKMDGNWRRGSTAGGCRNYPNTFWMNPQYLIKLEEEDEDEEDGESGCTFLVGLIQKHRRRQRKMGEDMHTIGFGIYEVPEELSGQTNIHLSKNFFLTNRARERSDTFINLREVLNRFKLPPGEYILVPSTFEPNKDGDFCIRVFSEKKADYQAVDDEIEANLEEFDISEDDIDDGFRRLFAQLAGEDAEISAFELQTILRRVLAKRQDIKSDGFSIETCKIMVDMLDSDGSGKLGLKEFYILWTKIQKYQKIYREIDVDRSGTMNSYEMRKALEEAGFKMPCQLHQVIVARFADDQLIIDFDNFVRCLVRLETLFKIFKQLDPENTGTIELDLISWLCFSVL
T2 sequence (P04632 1-268 partner): T1 sequence (P04632 1-268 partner)
As to the kind of experiment: Calpain inhibition continuous fluorescence (FRET) assay, Human Calpain 2/NS1. The format is biochemical. The settings on record: read-out: Human Calpain 2/NS1 IC50. A digest of the protocol: as §1

Another experiment addresses T3, Human Calpain 9/NS1 (Homo sapiens, UniProt O14815).
T3 sequence (O14815 1-690): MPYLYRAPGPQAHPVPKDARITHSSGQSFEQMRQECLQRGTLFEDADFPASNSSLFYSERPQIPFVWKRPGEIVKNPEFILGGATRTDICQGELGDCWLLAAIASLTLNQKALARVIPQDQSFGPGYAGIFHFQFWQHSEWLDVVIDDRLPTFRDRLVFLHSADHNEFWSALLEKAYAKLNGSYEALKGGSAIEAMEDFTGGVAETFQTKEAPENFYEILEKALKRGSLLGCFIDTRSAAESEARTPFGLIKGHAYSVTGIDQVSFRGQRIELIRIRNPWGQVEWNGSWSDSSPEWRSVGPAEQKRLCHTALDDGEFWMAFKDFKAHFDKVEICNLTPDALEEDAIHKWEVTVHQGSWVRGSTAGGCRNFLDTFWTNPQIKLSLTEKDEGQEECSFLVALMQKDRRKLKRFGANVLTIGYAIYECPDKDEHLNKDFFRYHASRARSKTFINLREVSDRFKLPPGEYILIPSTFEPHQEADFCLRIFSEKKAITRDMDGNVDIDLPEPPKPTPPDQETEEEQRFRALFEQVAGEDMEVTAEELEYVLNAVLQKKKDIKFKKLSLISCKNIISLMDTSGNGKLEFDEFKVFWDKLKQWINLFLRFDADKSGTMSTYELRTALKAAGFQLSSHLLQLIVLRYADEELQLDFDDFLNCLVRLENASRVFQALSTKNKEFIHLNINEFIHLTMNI
T3 sequence (P04632 1-268 partner): T1 sequence (P04632 1-268 partner)
As to the kind of experiment: Calpain inhibition continuous fluorescence (FRET) assay, Human Calpain 9/NS1. The format is biochemical. The settings on record: read-out: Human Calpain 9/NS1 IC50. In a few lines:
as §1

The subject of experiment [1] is Calpain activity in SH-SY5Y cells (SBDP-150). As to the kind of experiment: SH-SY5Y Spectrin western blot assay (SBDP-150 breakdown product, A23187-induced). The format is cell-based. Conditions: Homo sapiens, SH-SY5Y cells, read-out: SH-SY5Y Spectrin IC50. A general note: A western blot detects proteins with antibodies after separation by electrophoresis.
In experiment [2] the test system is Calpain activity in SH-SY5Y cells. As to the kind of experiment: SH-SY5Y + AMC fluorescence assay (Suc-LLVY-AMC substrate). The format is cell-based. The settings on record: read-out: SH-SY5Y + AMC IC50.
Where [3] appears, read: A23187-induced SBDP-150, western blot.
[4] abbreviates: Column D, A23187-induced SBDP-150.

As to `Cc1nc(-c2ccccc2)c(C(=O)N[C@@H](Cc2ccccc2)C(O)C(N)=O)o1` (stereo partly drawn) [Compound 360, N-((2S)-4-amino-3-hydroxy-4-oxo-1-phenylbutan-2-yl)-2-methyl-4-phenyloxazole-5-carboxamide], the IC50 is greater than 10 µM at Human Calpain 1/NS1; greater than 10 µM at Human Calpain 2/NS1; greater than 10 µM at Human Calpain 9/NS1; greater than 25 µM in experiment [1] (setting [3]); greater than 25 µM in experiment [2].

Consider `Cc1cc(C(=O)N[C@@H](Cc2ccccc2)C(=O)C(N)=O)n(-c2ccc(CNC(=O)Cc3ccccc3)cc2)n1` [Compound 159, (S)—N-(4-amino-3,4-dioxo-1-phenylbutan-2-yl)-3-methyl-1-(4-((2-phenylacetamido)methyl)phenyl)-1H-pyrazole-5-carboxamide], for which the IC50 was less than 3 µM on Human Calpain 1/NS1 (Column A); less than 3 µM on Human Calpain 2/NS1 (Column B); less than 3 µM on Human Calpain 9/NS1 (Column C); 10 to 25 µM in experiment [1] (setting [4]); greater than 25 µM in experiment [2] (Column E).

For the molecule `Cn1cc(C(=O)NC(Cc2ccccc2)C(=O)C(N)=O)c(-c2ccccc2C(F)(F)F)n1` (stereo not drawn) [Compound 513, N-(4-amino-3,4-dioxo-1-phenylbutan-2-yl)-1-methyl-3-(2-(trifluoromethyl)phenyl)-1H-pyrazole-4-carboxamide], the IC50 on Human Calpain 1/NS1 was 3 to 10 µM; at Human Calpain 2/NS1, 3 to 10 µM; on Human Calpain 9/NS1, 3 to 10 µM; in experiment [1] (setting [3]) it was greater than 25 µM; in experiment [2], less than 10 µM.

With `NC(=O)C(=O)C(Cc1ccccc1)NC(=O)c1cnoc1-c1ccccc1` (stereo not drawn) [Compound 531, N-(4-amino-3,4-dioxo-1-phenylbutan-2-yl)-5-phenylisoxazole-4-carboxamide], the IC50 at Human Calpain 1/NS1 is less than 3 µM; on Human Calpain 2/NS1, less than 3 µM; on Human Calpain 9/NS1, less than 3 µM; in experiment [1] (setting [3]) it was 10 to 25 µM; in experiment [2], greater than 25 µM.

As to `CC(C)n1cc(C(=O)N[C@@H](Cc2ccccc2)C(=O)C(N)=O)c(-c2ccccc2)n1` [Compound 242, (S)—N-(4-amino-3,4-dioxo-1-phenylbutan-2-yl)-1-isopropyl-3-phenyl-1H-pyrazole-4-carboxamide], the IC50 at Human Calpain 1/NS1 (Column A) was less than 3 µM; on Human Calpain 2/NS1 (Column B), less than 3 µM; at Human Calpain 9/NS1 (Column C), less than 3 µM; in experiment [1] (setting [4]), greater than 25 µM; in experiment [2] (Column E) it was less than 10 µM.

Turning to `Cc1cc(C(=O)NC(Cc2ccccc2)C(=O)C(N)=O)n(-c2cccc(COCc3ccccc3)c2)n1` (stereo not drawn) [Compound 438, N-(4-amino-3,4-dioxo-1-phenylbutan-2-yl)-1-(3-((benzyloxy)methyl)phenyl)-3-methyl-1H-pyrazole-5-carboxamide], the IC50 at Human Calpain 1/NS1 was less than 3 µM; on Human Calpain 2/NS1 it was less than 3 µM; on Human Calpain 9/NS1 it was less than 3 µM; in experiment [1] (setting [3]), 10 to 25 µM; in experiment [2], 10 to 25 µM.

As to `CC[C@H](NC(=O)c1oc(C)nc1-c1ccccc1)C(=O)C(N)=O` [Compound 243, (S)—N-(1-amino-1,2-dioxopentan-3-yl)-2-methyl-4-phenyloxazole-5-carboxamide], the IC50 is less than 3 µM on Human Calpain 1/NS1 (Column A); less than 3 µM at Human Calpain 2/NS1 (Column B); less than 3 µM at Human Calpain 9/NS1 (Column C); 10 to 25 µM in experiment [1] (setting [4]); greater than 25 µM in experiment [2] (Column E).

Consider `NC(=O)C(=O)C(Cc1ccccc1)NC(=O)c1nsnc1-c1ccccc1F` (stereo not drawn) [Compound 327, N-(4-amino-3,4-dioxo-1-phenylbutan-2-yl)-4-(2-fluorophenyl)-1,2,5-thiadiazole-3-carboxamide], for which the IC50 at Human Calpain 1/NS1 is less than 3 µM; at Human Calpain 2/NS1, less than 3 µM; at Human Calpain 9/NS1, less than 3 µM; in experiment [1] (setting [3]), less than 10 µM; in experiment [2], less than 10 µM.

As for `Cc1cccc(-c2ccc(-n3nc(C)cc3C(=O)N[C@@H](Cc3ccccc3)C(=O)C(N)=O)cc2)c1` [Compound 218, (S)—N-(4-amino-3,4-dioxo-1-phenylbutan-2-yl)-3-methyl-1-(3′-methyl-[1,1′-biphenyl]-4-yl)-1H-pyrazole-5-carboxamide], the IC50 was less than 3 µM on Human Calpain 1/NS1 (Column A); less than 3 µM at Human Calpain 2/NS1 (Column B); less than 3 µM at Human Calpain 9/NS1 (Column C); 10 to 25 µM in experiment [1] (setting [4]); greater than 25 µM in experiment [2] (Column E).

Regarding `Cn1cc(C(=O)NC(Cc2ccccc2)C(=O)C(N)=O)c(-c2cccc3ccccc23)n1` (stereo not drawn) [Compound 569, N-(4-amino-3,4-dioxo-1-phenylbutan-2-yl)-1-methyl-3-(naphthalen-1-yl)-1H-pyrazole-4-carboxamide], the IC50 at Human Calpain 1/NS1 is less than 3 µM; at Human Calpain 2/NS1, less than 3 µM; at Human Calpain 9/NS1 it was less than 3 µM; in experiment [1] (setting [3]), greater than 25 µM; in experiment [2], 10 to 25 µM.

Regarding `CCCC[C@H](NC(=O)c1cn(C)nc1-c1ccccc1)C(=O)C(N)=O` [Compound 419, (S)—N-(1-amino-1,2-dioxoheptan-3-yl)-1-methyl-3-phenyl-1H-pyrazole-4-carboxamide], the IC50 was less than 3 µM on Human Calpain 1/NS1; less than 3 µM on Human Calpain 2/NS1; less than 3 µM at Human Calpain 9/NS1; 10 to 25 µM in experiment [1] (setting [3]); greater than 25 µM in experiment [2].

For the molecule `COCCOCCOc1cccc(-n2nc(C)cc2C(=O)NC(Cc2ccccc2)C(=O)C(N)=O)c1` (stereo not drawn) [Compound 444, N-(4-amino-3,4-dioxo-1-phenylbutan-2-yl)-1-(3-(2-(2-methoxyethoxy)ethoxy)phenyl)-3-methyl-1H-pyrazole-5-carboxamide], the IC50 is less than 3 µM on Human Calpain 1/NS1; less than 3 µM on Human Calpain 2/NS1; less than 3 µM at Human Calpain 9/NS1; 10 to 25 µM in experiment [1] (setting [3]); less than 10 µM in experiment [2].
